Source: patent US9125937B2, “Labelled analogues of halobenzamides as multimodal radiopharmaceuticals and their precursors” (INSTITUT NATIONAL DE LA SANTE ET DE LA RECHERCHE MEDICALE …, priority 2008, dated 2015)

What was measured:
[1] = test system: B16F10 and B16F0 murine melanoma tumour grafts; test: PET imaging of melanoma-bearing mice; assay type: in vivo, C57BL6 mice
Protocol: Imaging Protocol. Three sets of mice were prepared for PET imaging as described in FIG. 3 in annex: • (Set 1) Four C57BL6 mice bearing both B16F10 and B16F0 murine melanoma tumour grafts on the flanks were anaesthetized with isoflurane and injected with [^18F]10 (200 μCi). Two were imaged immediately during the first hour after injection, allowed to recover from anaesthesia, anaesthetized again at two hours post injection and imaged between two and two-and-a-half hour after injection, allowed to recover from anaesthesia, anaesthetized again at four hours post injection and imaged between four and four-and-a-half hour after injection, then sacrificed and their organs weighed and counted. Two other mice were allowed to recover from anaesthesia, anaesthetized at two hours post injection and imaged between two and two-and-a-half hour after injection, allowed to recover from anaesthesia, anaesthetized again at four hours post injection and imaged between four and four-and-a-half hour after injection, then sacrificed and their organs weighed and counted. • (Set 2) Two C57BL6 mice bearing both B16F10 and B16F0 murine melanoma tumour grafts on the shoulders (so as to avoid contaminating signals originating from with digestive and urinary tracts) were injected with [^18F]10 (200 μCi), imaged under isoflurane anesthesia continuously during two hours, then sacrificed and their organs weighed and counted. • (Set 3) One C57BL6 mouse bearing both B16F10 and B16F0 murine melanoma tumour grafts on the shoulders (so as to avoid contaminating signals originating from with digestive and urinary tracts) was injected with [^18F]10 (600 μCi), allowed to recover, anaesthetized with isoflurane six hours post injection, imaged during 30 minutes between six and six-and-a-half hours post injection.
PET Imaging. […] All values of radioactivity concentrations were normalized for radioactivity decay, as well as by the injected dose of radiotracer, and expressed as percentage of the injected dose per volume of tissue (% ID/cc). […]

[2] = test system: B16F10 and B16F0 murine melanoma tumour grafts; test: Ex vivo biodistribution by organ counting after PET imaging; assay type: in vivo; details: two-and-a-half and four-and-a-half hours after i.v. injection, FIG. 4
Protocol: Imaging Protocol. Three sets of mice were prepared for PET imaging as described in FIG. 3 in annex: • (Set 1) Four C57BL6 mice bearing both B16F10 and B16F0 murine melanoma tumour grafts on the flanks were anaesthetized with isoflurane and injected with [^18F]10 (200 μCi). Two were imaged immediately during the first hour after injection, allowed to recover from anaesthesia, anaesthetized again at two hours post injection and imaged between two and two-and-a-half hour after injection, allowed to recover from anaesthesia, anaesthetized again at four hours post injection and imaged between four and four-and-a-half hour after injection, then sacrificed and their organs weighed and counted. […]
Biodistribution. [^18F]10 biodistribution was analysed for the mice of set 1 (n=4) four-and-a-half hours after injection, and for the mice of set 2 (n=2) two-and-a-half hours after injection. Animals were sacrificed by lethal injection of pentobarbital and organs were collected, weighed and radioactivity of each sample was measured on a Cobra gamma counter (Packard). […]

CCN(CCNC(=O)c1cnc2cc(I)ccc2n1)CCOc1cccnc1[18F] [[^18F]10, [^18F]N-[2-[N-ethyl-N-[2-(2-fluoropyridin-3-yloxy)ethyl]amino]ethyl]-6-iodoquinoxaline-2-carboxamide]
Uptake (% injected dose per volume tumour graft) in B16F0 relative to B16F10 tumour grafts ([1]; 2 and 4 hours post injection, same animal, FIGS. 5 and 6): more than two-to-three times higher | Uptake in B16F0 with respect to B16F10 ([1]; dynamic PET, FIG. 7, Set 2): two-to-three times higher | Contrast between melanoma grafts and surrounding tissue on PET images ([1]; two to two-and-a-half hours and six to six-and-a-half hours post injection): evident contrast | Biodistribution in selected organs (% ID/CC), tumour targeting [2]: specifically target melanoma tumours in vivo
